{"source": "patent US9695155B2", "about": "“Herbicidal substituted pyrimidinyloxy benzene compounds” (E. I. DU PONT DE NEMOURS AND COMPANY, priority 2013, dated 2017)", "key": {"[1]": {"system": "bluegrass", "experiment": "Test D preemergence", "format": "in vivo, Poa annua", "conditions": "Poa annua, pre-emergence", "in_short": "(§1)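 Seeds sown in silt loam soil got preemergence sprays; plants in peat/vermiculite potting medium were sprayed postemergence at 2–18 cm (1- to 4-leaf stage). Chemicals were formulated in a non-phytotoxic solvent mixture with surfactant. After 7 to 21 days in a controlled environment, injury was rated visually versus controls, 0 (no effect) to 100 (complete control).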"}, "[2]": {"system": "lambsquarters", "experiment": "Test D preemergence", "format": "in vivo, Chenopodium album", "conditions": "Chenopodium album, pre-emergence", "in_short": "as §1"}, "[3]": {"system": "oilseed rape", "experiment": "Test D preemergence", "format": "in vivo, Brassica napus", "conditions": "Brassica napus, pre-emergence", "in_short": "as §1"}, "[4]": {"system": "speedwell", "experiment": "Test D preemergence", "format": "in vivo, Veronica persica", "conditions": "Veronica persica, pre-emergence", "in_short": "as §1"}, "[5]": {"system": "spring wheat", "experiment": "Test D preemergence", "format": "in vivo, Triticum aestivum", "conditions": "Triticum aestivum, pre-emergence", "in_short": "as §1"}, "[6]": {"system": "winter wheat", "experiment": "Test D preemergence", "format": "in vivo, Triticum aestivum", "conditions": "Triticum aestivum, pre-emergence", "in_short": "as §1"}, "[7]": {"system": "Italian ryegrass", "experiment": "Test D postemergence", "format": "in vivo, Lolium multiflorum", "conditions": "Lolium multiflorum, post-emergence", "in_short": "as §1"}, "[8]": {"system": "oilseed rape", "experiment": "Test D postemergence", "format": "in vivo, Brassica napus", "conditions": "Brassica napus, post-emergence", "in_short": "as §1"}, "[9]": {"system": "speedwell", "experiment": "Test D postemergence", "format": "in vivo, Veronica persica", "conditions": "Veronica persica, post-emergence", "in_short": "as §1"}, "[10]": {"system": "wild oat", "experiment": "Test D postemergence", "format": "in vivo, Avena fatua", "conditions": "Avena fatua, post-emergence", "in_short": "as §1"}, "[11]": {"system": "wild radish", "experiment": "Test D postemergence", "format": "in vivo, Raphanus raphanistrum", "conditions": "Raphanus raphanistrum, post-emergence", "in_short": "as §1"}}}
{"smiles": "FC(F)(F)c1cn(-c2ccccc2Oc2ncc(Cl)cn2)nn1", "note": "[Compound 166, 5-chloro-2-[2-[4-(trifluoromethyl)-1H-1,2,3-triazol-1-yl]phenoxy]pyrimidine]", "values": [{"measurement": "pest or weed control at 16 g/ha", "setting": "[1]; 16 g ai/ha, scale 0 (no effect) to 100 (complete control), read-out: Plant response rating, Bluegrass", "result": 5, "unit": "%"}, {"measurement": "pest or weed control at 31 g/ha", "setting": "[1]; 31 g ai/ha, scale 0-100, read-out: Plant response rating, Bluegrass", "result": 20, "unit": "%"}, {"measurement": "pest or weed control at 62 g/ha", "setting": "[1]; 62 g ai/ha, scale 0-100, read-out: Plant response rating, Bluegrass", "result": 65, "unit": "%"}, {"measurement": "pest or weed control at 125 g/ha", "setting": "[1]; 125 g ai/ha, scale 0-100, read-out: Plant response rating, Bluegrass", "result": 100, "unit": "%"}, {"measurement": "pest or weed control at 16 g/ha", "setting": "[2]; 16 g ai/ha, scale 0 (no effect) to 100 (complete control), read-out: Plant response rating, Lambsquarters", "result": 85, "unit": "%"}, {"measurement": "pest or weed control at 31 g/ha", "setting": "[2]; 31 g ai/ha, scale 0-100, read-out: Plant response rating, Lambsquarters", "result": 95, "unit": "%"}, {"measurement": "pest or weed control at 62 g/ha", "setting": "[2]; 62 g ai/ha, scale 0-100, read-out: Plant response rating, Lambsquarters", "result": 100, "unit": "%"}, {"measurement": "pest or weed control at 125 g/ha", "setting": "[2]; 125 g ai/ha, scale 0-100, read-out: Plant response rating, Lambsquarters", "result": 100, "unit": "%"}, {"measurement": "plant injury at 16 g/ha", "setting": "[3]; 16 g ai/ha, scale 0 (no effect) to 100 (complete control), read-out: Plant response rating, Oilseed Rape", "result": 35, "unit": "%"}, {"measurement": "plant injury at 31 g/ha", "setting": "[3]; 31 g ai/ha, scale 0-100, read-out: Plant response rating, Oilseed Rape", "result": 50, "unit": "%"}, {"measurement": "plant injury at 62 g/ha", "setting": "[3]; 62 g ai/ha, scale 0-100, read-out: Plant response rating, Oilseed Rape", "result": 100, "unit": "%"}, {"measurement": "plant injury at 125 g/ha", "setting": "[3]; 125 g ai/ha, scale 0-100, read-out: Plant response rating, Oilseed Rape", "result": 100, "unit": "%"}, {"measurement": "pest or weed control at 16 g/ha", "setting": "[4]; 16 g ai/ha, scale 0 (no effect) to 100 (complete control), read-out: Plant response rating, Speedwell", "result": 100, "unit": "%"}, {"measurement": "pest or weed control at 31 g/ha", "setting": "[4]; 31 g ai/ha, scale 0 (no effect) to 100 (complete control), read-out: Plant response rating, Speedwell", "result": 100, "unit": "%"}, {"measurement": "pest or weed control at 62 g/ha", "setting": "[4]; 62 g ai/ha, scale 0-100, read-out: Plant response rating, Speedwell", "result": 100, "unit": "%"}, {"measurement": "pest or weed control at 125 g/ha", "setting": "[4]; 125 g ai/ha, scale 0-100, read-out: Plant response rating, Speedwell", "result": 100, "unit": "%"}, {"measurement": "plant injury at 16 g/ha", "setting": "[5]; 16 g ai/ha, scale 0 (no effect) to 100 (complete control), read-out: Plant response rating, Wheat, Spring", "result": 0, "unit": "%"}, {"measurement": "plant injury at 31 g/ha", "setting": "[5]; 31 g ai/ha, scale 0 (no effect) to 100 (complete control), read-out: Plant response rating, Wheat, Spring", "result": 0, "unit": "%"}, {"measurement": "plant injury at 62 g/ha", "setting": "[5]; 62 g ai/ha, scale 0-100, read-out: Plant response rating, Wheat, Spring", "result": 10, "unit": "%"}, {"measurement": "plant injury at 125 g/ha", "setting": "[5]; 125 g ai/ha, scale 0-100, read-out: Plant response rating, Wheat, Spring", "result": 60, "unit": "%"}, {"measurement": "plant injury at 16 g/ha", "setting": "[6]; 16 g ai/ha, scale 0 (no effect) to 100 (complete control), read-out: Plant response rating, Wheat, Winter", "result": 0, "unit": "%"}, {"measurement": "plant injury at 31 g/ha", "setting": "[6]; 31 g ai/ha, scale 0 (no effect) to 100 (complete control), read-out: Plant response rating, Wheat, Winter", "result": 0, "unit": "%"}, {"measurement": "plant injury at 62 g/ha", "setting": "[6]; 62 g ai/ha, scale 0-100, read-out: Plant response rating, Wheat, Winter", "result": 0, "unit": "%"}, {"measurement": "plant injury at 125 g/ha", "setting": "[6]; 125 g ai/ha, scale 0-100, read-out: Plant response rating, Wheat, Winter", "result": 25, "unit": "%"}, {"measurement": "pest or weed control at 16 g/ha", "setting": "[7]; 16 g ai/ha, scale 0-100, read-out: Plant response rating, Ryegrass, Italian", "result": 10, "unit": "%"}, {"measurement": "pest or weed control at 31 g/ha", "setting": "[7]; 31 g ai/ha, scale 0 to 100 (0 no effect, 100 complete control), read-out: Plant response rating, Ryegrass, Italian", "result": 20, "unit": "%"}, {"measurement": "pest or weed control at 62 g/ha", "setting": "[7]; 62 g ai/ha, scale 0 to 100 (0 no effect, 100 complete control), read-out: Plant response rating, Ryegrass, Italian", "result": 25, "unit": "%"}, {"measurement": "pest or weed control at 125 g/ha", "setting": "[7]; 125 g ai/ha, scale 0 to 100 (0 no effect, 100 complete control), read-out: Plant response rating, Ryegrass, Italian", "result": 40, "unit": "%"}, {"measurement": "plant injury at 16 g/ha", "setting": "[8]; 16 g ai/ha, scale 0-100, read-out: Plant response rating, Oilseed Rape", "result": 60, "unit": "%"}, {"measurement": "plant injury at 31 g/ha", "setting": "[8]; 31 g ai/ha, scale 0 to 100 (0 no effect, 100 complete control), read-out: Plant response rating, Oilseed Rape", "result": 65, "unit": "%"}, {"measurement": "plant injury at 62 g/ha", "setting": "[8]; 62 g ai/ha, scale 0 to 100 (0 no effect, 100 complete control), read-out: Plant response rating, Oilseed Rape", "result": 95, "unit": "%"}, {"measurement": "plant injury at 125 g/ha", "setting": "[8]; 125 g ai/ha, scale 0 to 100 (0 no effect, 100 complete control), read-out: Plant response rating, Oilseed Rape", "result": 100, "unit": "%"}, {"measurement": "pest or weed control at 16 g/ha", "setting": "[9]; 16 g ai/ha, scale 0-100, read-out: Plant response rating, Speedwell", "result": 70, "unit": "%"}, {"measurement": "pest or weed control at 31 g/ha", "setting": "[9]; 31 g ai/ha, scale 0 to 100 (0 no effect, 100 complete control), read-out: Plant response rating, Speedwell", "result": 85, "unit": "%"}, {"measurement": "pest or weed control at 62 g/ha", "setting": "[9]; 62 g ai/ha, scale 0 to 100 (0 no effect, 100 complete control), read-out: Plant response rating, Speedwell", "result": 100, "unit": "%"}, {"measurement": "pest or weed control at 125 g/ha", "setting": "[9]; 125 g ai/ha, scale 0 to 100 (0 no effect, 100 complete control), read-out: Plant response rating, Speedwell", "result": 100, "unit": "%"}, {"measurement": "pest or weed control at 16 g/ha", "setting": "[10]; 16 g ai/ha, scale 0-100, read-out: Plant response rating, Oat, Wild", "result": 25, "unit": "%"}, {"measurement": "pest or weed control at 31 g/ha", "setting": "[10]; 31 g ai/ha, scale 0 to 100 (0 no effect, 100 complete control), read-out: Plant response rating, Oat, Wild", "result": 30, "unit": "%"}, {"measurement": "pest or weed control at 62 g/ha", "setting": "[10]; 62 g ai/ha, scale 0 to 100 (0 no effect, 100 complete control), read-out: Plant response rating, Oat, Wild", "result": 35, "unit": "%"}, {"measurement": "pest or weed control at 125 g/ha", "setting": "[10]; 125 g ai/ha, scale 0 to 100 (0 no effect, 100 complete control), read-out: Plant response rating, Oat, Wild", "result": 40, "unit": "%"}, {"measurement": "pest or weed control at 16 g/ha", "setting": "[11]; 16 g ai/ha, scale 0-100, read-out: Plant response rating, Radish, Wild", "result": 70, "unit": "%"}, {"measurement": "pest or weed control at 31 g/ha", "setting": "[11]; 31 g ai/ha, scale 0 to 100 (0 no effect, 100 complete control), read-out: Plant response rating, Radish, Wild", "result": 70, "unit": "%"}, {"measurement": "pest or weed control at 62 g/ha", "setting": "[11]; 62 g ai/ha, scale 0 to 100 (0 no effect, 100 complete control), read-out: Plant response rating, Radish, Wild", "result": 95, "unit": "%"}, {"measurement": "pest or weed control at 125 g/ha", "setting": "[11]; 125 g ai/ha, scale 0 to 100 (0 no effect, 100 complete control), read-out: Plant response rating, Radish, Wild", "result": 95, "unit": "%"}]}
